Data reported in US9315491B2 (DEVELOPMENT CENTER FOR BIOTECHNOLOGY, priority 2009, dated 2016).

Legend:
PI3K (p110α/p85α) = PI3K (p110α/p85α) (Homo sapiens (Human), UniProt P42336); assay: PI3K HTRF enzyme assay, p110α/p85α; type: biochemical; details: read-out: % inhibition @ 500 nM p110α; compound at 500 nM, 10 μM ATP
How it was run: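 Recombinant PI3K heterodimers with PIP2 substrate; reactions ran 30 min at room temperature with 10 μM ATP for p110α/p85α and 100 μM ATP for p110β/p85α. After stop, HTRF detection followed 17 h incubation in the dark at room temperature; HTRF ratio used as read-out.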

recombinant mTOR = recombinant mTOR (Homo sapiens (Human), UniProt P42345); assay: mTOR kinase assay (33P incorporation into 4EBP1); type: biochemical; details: compound at 10 μM, 10 μM ATP
How it was run: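 Recombinant human mTOR (50 ng) phosphorylated His-tagged 4EBP1 (300 ng) with 10 μM ATP plus [γ-33P]-ATP in HEPES pH 7.5, MnCl2, EGTA and DTT for 30 min at 30° C. Labelled 4EBP1 was filter-captured and counted. IC50 was derived from eight-point duplicate dilution series.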

Chain of PI3K (p110α/p85α) (P42336 whole entry, species assumed): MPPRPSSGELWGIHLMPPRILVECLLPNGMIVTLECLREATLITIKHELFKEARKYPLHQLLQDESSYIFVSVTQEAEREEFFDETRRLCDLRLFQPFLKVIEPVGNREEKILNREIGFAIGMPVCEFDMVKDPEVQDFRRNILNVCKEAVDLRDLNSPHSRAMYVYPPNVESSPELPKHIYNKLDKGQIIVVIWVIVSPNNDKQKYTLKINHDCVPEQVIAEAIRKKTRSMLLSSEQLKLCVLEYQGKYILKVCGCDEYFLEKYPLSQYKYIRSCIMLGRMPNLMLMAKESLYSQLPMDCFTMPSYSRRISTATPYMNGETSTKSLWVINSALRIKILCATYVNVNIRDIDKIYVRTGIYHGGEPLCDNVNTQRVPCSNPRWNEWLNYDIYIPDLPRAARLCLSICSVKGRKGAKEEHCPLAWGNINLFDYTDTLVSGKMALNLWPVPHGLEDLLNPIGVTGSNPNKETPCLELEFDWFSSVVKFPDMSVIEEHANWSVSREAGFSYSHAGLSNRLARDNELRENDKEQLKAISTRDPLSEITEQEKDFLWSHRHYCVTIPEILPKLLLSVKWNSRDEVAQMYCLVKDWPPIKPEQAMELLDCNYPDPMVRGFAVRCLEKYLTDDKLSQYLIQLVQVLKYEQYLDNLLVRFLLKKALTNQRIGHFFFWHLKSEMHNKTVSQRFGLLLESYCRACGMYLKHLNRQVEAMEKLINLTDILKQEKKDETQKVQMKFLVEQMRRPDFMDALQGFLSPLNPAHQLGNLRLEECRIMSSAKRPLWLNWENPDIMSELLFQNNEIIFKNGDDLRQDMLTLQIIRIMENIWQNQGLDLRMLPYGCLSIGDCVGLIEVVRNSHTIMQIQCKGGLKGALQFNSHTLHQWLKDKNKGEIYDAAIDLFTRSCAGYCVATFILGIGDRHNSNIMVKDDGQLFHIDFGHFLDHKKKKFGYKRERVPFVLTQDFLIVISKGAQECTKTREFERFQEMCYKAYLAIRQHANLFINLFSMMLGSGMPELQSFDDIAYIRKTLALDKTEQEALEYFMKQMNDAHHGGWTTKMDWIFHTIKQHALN
Chain of PI3K (p110α/p85α) (P27986 whole entry partner, species assumed): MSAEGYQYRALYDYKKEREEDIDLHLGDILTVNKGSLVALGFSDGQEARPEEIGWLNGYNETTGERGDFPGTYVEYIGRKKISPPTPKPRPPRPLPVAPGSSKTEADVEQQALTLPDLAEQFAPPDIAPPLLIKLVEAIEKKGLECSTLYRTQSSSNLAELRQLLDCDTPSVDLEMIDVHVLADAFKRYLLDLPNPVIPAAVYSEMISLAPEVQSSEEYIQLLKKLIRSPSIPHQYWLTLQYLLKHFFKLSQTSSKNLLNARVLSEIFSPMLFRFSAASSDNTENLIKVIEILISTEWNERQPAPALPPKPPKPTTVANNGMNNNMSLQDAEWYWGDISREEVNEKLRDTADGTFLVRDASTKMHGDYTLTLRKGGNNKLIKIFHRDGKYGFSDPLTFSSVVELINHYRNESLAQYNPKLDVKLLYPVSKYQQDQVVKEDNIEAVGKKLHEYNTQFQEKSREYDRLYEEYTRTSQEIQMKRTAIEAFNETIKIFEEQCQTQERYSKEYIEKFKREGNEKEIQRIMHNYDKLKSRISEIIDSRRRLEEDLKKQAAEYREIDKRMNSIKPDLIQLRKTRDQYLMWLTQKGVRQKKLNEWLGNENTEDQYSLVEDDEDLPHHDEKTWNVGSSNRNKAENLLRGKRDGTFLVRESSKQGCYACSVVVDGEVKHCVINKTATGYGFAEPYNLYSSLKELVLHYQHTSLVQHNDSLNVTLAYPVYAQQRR
Chain of recombinant mTOR (P42345 1360-2549): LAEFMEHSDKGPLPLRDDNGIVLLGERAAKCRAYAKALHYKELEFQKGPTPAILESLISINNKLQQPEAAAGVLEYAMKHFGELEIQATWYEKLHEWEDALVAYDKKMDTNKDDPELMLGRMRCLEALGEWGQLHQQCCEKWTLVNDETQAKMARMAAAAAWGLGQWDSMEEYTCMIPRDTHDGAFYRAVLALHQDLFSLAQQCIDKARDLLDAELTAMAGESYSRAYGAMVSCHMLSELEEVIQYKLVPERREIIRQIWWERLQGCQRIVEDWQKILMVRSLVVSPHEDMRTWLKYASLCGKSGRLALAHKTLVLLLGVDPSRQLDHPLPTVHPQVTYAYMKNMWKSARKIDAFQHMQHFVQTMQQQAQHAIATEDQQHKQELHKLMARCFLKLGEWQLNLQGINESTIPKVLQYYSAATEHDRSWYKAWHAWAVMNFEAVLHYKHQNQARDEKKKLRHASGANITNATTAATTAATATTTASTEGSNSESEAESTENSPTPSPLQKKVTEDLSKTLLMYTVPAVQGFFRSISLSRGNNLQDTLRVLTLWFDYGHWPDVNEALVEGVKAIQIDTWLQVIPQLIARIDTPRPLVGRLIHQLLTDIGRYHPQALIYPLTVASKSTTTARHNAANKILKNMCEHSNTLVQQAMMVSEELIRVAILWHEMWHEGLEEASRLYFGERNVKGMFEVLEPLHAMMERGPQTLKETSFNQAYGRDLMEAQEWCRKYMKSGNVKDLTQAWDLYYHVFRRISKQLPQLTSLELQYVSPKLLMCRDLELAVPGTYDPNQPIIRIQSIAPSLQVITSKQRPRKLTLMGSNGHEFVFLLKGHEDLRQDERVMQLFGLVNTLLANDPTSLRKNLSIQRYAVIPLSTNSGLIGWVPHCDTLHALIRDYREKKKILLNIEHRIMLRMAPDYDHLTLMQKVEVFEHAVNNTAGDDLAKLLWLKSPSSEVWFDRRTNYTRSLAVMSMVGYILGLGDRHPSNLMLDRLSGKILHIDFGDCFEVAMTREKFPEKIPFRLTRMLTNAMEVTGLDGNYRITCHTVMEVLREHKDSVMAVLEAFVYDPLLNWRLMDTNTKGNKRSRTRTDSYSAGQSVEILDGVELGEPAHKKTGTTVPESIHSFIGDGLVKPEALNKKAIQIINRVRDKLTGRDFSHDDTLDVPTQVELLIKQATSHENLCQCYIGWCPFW

Row | inhibition at 0.5 µM (PI3K (p110α/p85α)) [%] | inhibition at 10 µM (recombinant mTOR) [%] | SMILES
1 | 78.4 |  | COc1cnc(-c2ccc(NC(=O)Nc3ccc(N4CCOCC4=O)cc3)cc2F)nc1N1CCOCC1 [MTR-0406, 1-[3-Fluoro-4-(5-methoxy-4-morpholin-4-yl-pyrimidin-2-yl)-phenyl]-3-[4-(3-oxo-morpholin-4-yl)-phenyl]-urea]
2 | 63.4 |  | COc1cnc(-c2ccc(NC(=O)Nc3ccc(C(N)=O)cc3)cc2F)nc1N1CCOCC1 [MTR-0407, 4-{3-[3-Fluoro-4-(5-methoxy-4-morpholin-4-yl-pyrimidin-2-yl)-phenyl]-ureido}-benzamide]
3 | 82.7 |  | CSc1c(Cl)nc(-c2ccc(NC(=O)Nc3ccc(S(N)(=O)=O)cc3)cc2F)nc1N1CCOCC1 [MTR-0412, 4-{3-[4-(4-Chloro-5-methylsulfanyl-6-morpholin-4-yl-pyrimidin-2-yl)-3-fluoro-phenyl]-ureido}-benzenesulfonamide]
4 | 58.6 |  | CCOc1cnc(-c2ccc(NC(=O)Nc3ccc(N4CCN(S(C)(=O)=O)CC4)cc3)cc2)nc1N1CCOCC1 [MTR-0420, 1-[4-(5-Ethoxy-4-morpholin-4-yl-pyrimidin-2-yl)-phenyl]-3-[4-(4-methanesulfonyl-piperazin-1-yl)-phenyl]-urea]
5 | 98.7 |  | CCOc1cnc(-c2ccc(NC(=O)Nc3ccc(C(=O)N4CCOCC4)cc3)cc2)nc1N1CCOCC1 [MTR-0421, 1-[4-(5-Ethoxy-4-morpholin-4-yl-pyrimidin-2-yl)-phenyl]-3-[4-(morpholine-4-carbonyl)-phenyl]-urea]
6 | 71.5 |  | CCOc1cnc(-c2ccc(NC(=O)Nc3ccc(S(C)(=O)=O)cc3)cc2)nc1N1CCOCC1 [MTR-0424, 1-[4-(5-Ethoxy-4-morpholin-4-yl-pyrimidin-2-yl)-phenyl]-3-(4-methanesulfonyl-phenyl)-urea]
7 | 58.4 |  | COc1cnc(-c2ccc(NC(=O)Nc3cccc(NC(C)=O)c3)cc2)nc1N1CCOCC1 [MTR-0426, N-(3-{3-[4-(5-Methoxy-4-morpholin-4-yl-pyrimidin-2-yl)-phenyl]-ureido}-phenyl)-acetamide]
8 | 71.1 |  | COc1cnc(-c2ccc(NC(=O)Nc3ccc(C(=O)NCCCN(C)C)cc3)cc2)nc1N1CCOCC1 [MTR-0427, N-(3-Dimethylamino-propyl)-4-{3-[4-(5-methoxy-4-morpholin-4-yl-pyrimidin-2-yl)-phenyl]-ureido}-benzamide]
9 | 71.5 |  | CSc1c(Cl)nc(-c2ccc(NC(=O)Nc3ccc(C(=O)N4CCC(N(C)C)CC4)cc3)cc2)nc1N1CCOCC1 [MTR-0436, 1-[4-(4-Chloro-5-methylsulfanyl-6-morpholin-4-yl-pyrimidin-2-yl)-phenyl]-3-[4-(4-dimethylamino-piperidine-1-carbonyl)-phenyl]-urea]
10 | 79.1 |  | CCOc1cnc(-c2ccc(NC(=O)Nc3ccc(NC(C)=O)nc3)cc2)nc1N1CCOCC1 [MTR-0442, N-(5-{3-[4-(5-Ethoxy-4-morpholin-4-yl-pyrimidin-2-yl)-phenyl]-ureido}-pyridin-2-yl)-acetamide]
11 | 66.3 |  | CCOc1cnc(-c2ccc(NC(=O)Nc3ccncc3)cc2)nc1N1CCOCC1 [MTR-0446, 1-[4-(5-Ethoxy-4-morpholin-4-yl-pyrimidin-2-yl)-phenyl]-3-pyridin-4-yl-urea]
12 | 75.4 |  | COc1cnc(-c2ccc(NC(=O)Nc3ccc(NS(C)(=O)=O)cc3)cc2)nc1N1CCOCC1 [MTR-0449, N-(4-{3-[4-(5-Methoxy-4-morpholin-4-yl-pyrimidin-2-yl)-phenyl]-ureido}-phenyl)-methanesulfonamide]
13 | 74.4 |  | O=C(Nc1ccc(C(=O)N2CCOCC2)cc1)Nc1ccc(-c2ncc(OCCN3CCOCC3)c(N3CCOCC3)n2)cc1 [MTR-0454, 1-[4-(Morpholine-4-carbonyl)-phenyl]-3-{4-[4-morpholin-4-yl-5-(2-morpholin-4-yl-ethoxy)-pyrimidin-2-yl]-phenyl}-urea]
14 | 48.9 |  | O=C(Nc1ccc(-c2ncc(OCCN3CCOCC3)c(N3CCOCC3)n2)cc1)Nc1ccc(N2CCOCC2=O)cc1 [MTR-0455, 1-{4-[4-Morpholin-4-yl-5-(2-morpholin-4-yl-ethoxy)-pyrimidin-2-yl]-phenyl}-3-[4-(3-oxo-morpholin-4-yl)-phenyl]-urea]
15 | 52.6 |  | NC(=O)c1ccc(NC(=O)Nc2ccc(-c3ncc(OCCN4CCOCC4)c(N4CCOCC4)n3)cc2)cc1 [MTR-0456, 4-(3-{4-[4-Morpholin-4-yl-5-(2-morpholin-4-yl-ethoxy)-pyrimidin-2-yl]-phenyl}-ureido)-benzamide]
16 | 47.4 |  | CSc1c(-c2cccnc2)nc(-c2ccc(NC(=O)Nc3ccc(N4CCOCC4=O)cc3)cc2)nc1N1CCOCC1 [MTR-0457, 1-[4-(5-Methylsulfanyl-4-morpholin-4-yl-6-pyridin-3-yl-pyrimidin-2-yl)-phenyl]-3-[4-(3-oxo-morpholin-4-yl)-phenyl]-urea]
17 | 93.4 |  | CSc1cnc(-c2ccc(NC(=O)Nc3ccc(C(=O)N4CCOCC4)cc3)cc2)nc1N1CCOCC1 [MTR-0461, 1-[4-(5-Methylsulfanyl-4-morpholin-4-yl-pyrimidin-2-yl)-phenyl]-3-[4-(morpholine-4-carbonyl)-phenyl]-urea]
18 | 67.9 |  | CSc1cnc(-c2ccc(NC(=O)Nc3ccncc3)cc2)nc1N1CCOCC1 [MTR-0462, 1-[4-(5-Methylsulfanyl-4-morpholin-4-yl-pyrimidin-2-yl)-phenyl]-3-pyridin-4-yl-urea]
19 | 81.7 |  | CSc1c(Cl)nc(-c2ccc(NC(=O)Nc3ccncc3)cc2)nc1N1CCOCC1 [MTR-0469, 1-[4-(4-Chloro-5-methylsulfanyl-6-morpholin-4-yl-pyrimidin-2-yl)-phenyl]-3-pyridin-4-yl-urea]

The next lines start with the molecule.

Row | SMILES | inhibition at 0.5 µM (PI3K (p110α/p85α)) [%] | inhibition at 10 µM (recombinant mTOR) [%]
20 | CSc1c(OCCN(C)C)nc(-c2cccc(O)c2)nc1N1CCOCC1 [MTR-0043, 3-[4-(2-Dimethylamino-ethoxy)-5-methylsulfanyl-6-morpholin-4-yl-pyrimidin-2-yl]-phenol] | 85.4 | 96
21 | CSc1c(Cl)nc(-c2ccc(NC(=O)Nc3ccccc3)cc2)nc1N1CCOCC1 [MTR-0091, 1-[4-(4-Chloro-5-methylsulfanyl-6-morpholin-4-yl-pyrimidin-2-yl)-phenyl]-3-phenyl-urea] | 60.9 | 92
22 | CCOC(=O)c1nc(-c2ccc(NC(=O)Nc3cccc(F)c3)cc2)nc(N2CCOCC2)c1OCC [MTR-0147, 5-Ethoxy-2-{4-[3-(3-fluoro-phenyl)-ureido]-phenyl}-6-morpholin-4-yl-pyrimidine-4-carboxylic acid ethyl ester] | 52.4 | 95
23 | CSc1cnc(-c2ccc(NC(=O)Nc3ccccc3)cc2)nc1N1CCOCC1 [MTR-0162, 1-[4-(5-Methylsulfanyl-4-morpholin-4-yl-pyrimidin-2-yl)-phenyl]-3-phenyl-urea] | 102 | 95
24 | COc1cnc(-c2ccc(NC(=O)Nc3cccc(F)c3)cc2)nc1N1CCOCC1 [MTR-0164, 1-(3-Fluoro-phenyl)-3-[4-(5-methoxy-4-morpholin-4-yl-pyrimidin-2-yl)-phenyl]-urea] | 84.7 | 91
25 | CCOc1c(CN2CCN(S(C)(=O)=O)CC2)nc(-c2ccc(NC(=O)Nc3ccccc3)cc2)nc1N1CCOCC1 [MTR-0169, 1-{4-[5-Ethoxy-4-(4-methanesulfonyl-piperazin-1-ylmethyl)-6-morpholin-4-yl-pyrimidin-2-yl]-phenyl}-3-phenyl-urea] | 52.7 | 96
26 | CSc1cnc(-c2ccc(NC(=O)Nc3ccc(F)cc3)cc2)nc1N1CCOCC1 [MTR-0178, 1-(4-Fluoro-phenyl)-3-[4-(5-methylsulfanyl-4-morpholin-4-yl-pyrimidin-2-yl)-phenyl]-urea] | 48.8 | 90
27 | CSc1c(-c2ccncc2)nc(-c2ccc(NC(=O)Nc3ccc(N4CCOCC4=O)cc3)cc2)nc1N1CCOCC1 [MTR-0391, 1-[4-(5-Methylsulfanyl-4-morpholin-4-yl-6-pyridin-4-yl-pyrimidin-2-yl)-phenyl]-3-[4-(3-oxo-morpholin-4-yl)-phenyl]-urea] | 51.7 | 
28 | CSc1c(-c2ccncc2)nc(-c2ccc(NC(=O)Nc3ccc(C(N)=O)cc3)cc2)nc1N1CCOCC1 [MTR-0392, 4-{3-[4-(5-Methylsulfanyl-4-morpholin-4-yl-6-pyridin-4-yl-pyrimidin-2-yl)-phenyl]-ureido}-benzamide] | 46.6 | 
29 | CCOc1cnc(-c2ccc(NC(=O)Nc3ccc(NS(C)(=O)=O)cc3)cc2)nc1N1CCOCC1 [MTR-0394, N-(4-{3-[4-(5-Ethoxy-4-morpholin-4-yl-pyrimidin-2-yl)-phenyl]-ureido}-phenyl)-methanesulfonamide] | 70.5 | 
30 | C[S+]([O-])c1cnc(-c2ccc(NC(=O)Nc3ccc(N4CCOCC4=O)cc3)cc2)nc1N1CCOCC1 (stereo not drawn) [MTR-0401, 1-[4-(5-Methanesulfinyl-4-morpholin-4-yl-pyrimidin-2-yl)-phenyl]-3-[4-(3-oxo-morpholin-4-yl)-phenyl]-urea] | 41.7 | 
31 | CSc1cnc(-c2ccc(NC(=O)Nc3ccc(S(C)(=O)=O)cc3)cc2)nc1N1CCOCC1 [MTR-0404, 1-(4-Methanesulfonyl-phenyl)-3-[4-(5-methylsulfanyl-4-morpholin-4-yl-pyrimidin-2-yl)-phenyl]-urea] | 66.9 | 
32 | COc1cnc(-c2ccc(NC(=O)Nc3ccc(N4CCOCC4=O)cc3)c(F)c2)nc1N1CCOCC1 [MTR-0405, 1-[2-Fluoro-4-(5-methoxy-4-morpholin-4-yl-pyrimidin-2-yl)-phenyl]-3-[4-(3-oxo-morpholin-4-yl)-phenyl]-urea] | 52.5 | 
